These results are taken from patent publication US7595395B2, “Gabaergic agents to treat memory deficits” (priority 2005, dated 2009).

The target in one series is α2β3γ2 GABAA receptor (Rattus norvegicus, UniProt P18508+P23576). The experiment in a line: Two-electrode voltage clamp in Xenopus oocytes, α2β3γ2. The following applies: oocytes.
The target in series [1] is T1, α1β3γ2 benzodiazepine receptor GABA(A) isoform (UniProt P14867+P18507).
T1 sequence (P14867 1-456): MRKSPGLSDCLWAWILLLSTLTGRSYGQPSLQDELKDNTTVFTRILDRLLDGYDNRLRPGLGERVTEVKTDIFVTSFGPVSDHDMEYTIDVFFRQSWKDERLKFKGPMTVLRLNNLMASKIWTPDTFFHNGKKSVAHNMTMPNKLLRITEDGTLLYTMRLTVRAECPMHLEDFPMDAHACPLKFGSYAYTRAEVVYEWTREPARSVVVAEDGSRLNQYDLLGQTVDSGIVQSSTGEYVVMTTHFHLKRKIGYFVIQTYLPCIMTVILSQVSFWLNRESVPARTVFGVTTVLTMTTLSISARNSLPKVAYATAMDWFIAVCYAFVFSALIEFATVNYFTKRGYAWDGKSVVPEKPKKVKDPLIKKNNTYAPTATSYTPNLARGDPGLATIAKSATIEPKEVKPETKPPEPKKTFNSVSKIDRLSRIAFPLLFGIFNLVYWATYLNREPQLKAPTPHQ
T1 sequence (P18507 1-475): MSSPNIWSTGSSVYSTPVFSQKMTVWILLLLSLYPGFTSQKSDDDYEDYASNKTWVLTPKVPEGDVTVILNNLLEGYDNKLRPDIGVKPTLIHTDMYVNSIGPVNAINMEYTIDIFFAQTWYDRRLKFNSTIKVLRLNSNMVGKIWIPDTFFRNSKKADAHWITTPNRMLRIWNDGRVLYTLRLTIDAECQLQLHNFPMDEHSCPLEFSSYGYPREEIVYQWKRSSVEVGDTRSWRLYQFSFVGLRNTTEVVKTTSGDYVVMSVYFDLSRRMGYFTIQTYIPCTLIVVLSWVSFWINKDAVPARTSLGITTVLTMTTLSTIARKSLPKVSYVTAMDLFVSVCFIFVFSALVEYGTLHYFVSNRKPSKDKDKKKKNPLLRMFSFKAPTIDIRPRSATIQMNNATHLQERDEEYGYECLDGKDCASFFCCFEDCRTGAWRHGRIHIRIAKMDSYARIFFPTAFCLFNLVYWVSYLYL
The experiment in a line: Radioligand competition binding, α1β3γ2 BzR/GABA(A) isoform. The conditions noted are these: HEK-T cells (Roth et al.). More on the design: rows headed: Ki α1 (in words); other: text; HEK-T cells (Roth et al.); species or system human and rat. The method, then: The affinity of all ligands at the 6 major recombinant GABAA/BzR subtypes was measured by competition for [^3H]Ro15-1788 binding to HEK-T cells expressing both human and rat GABAA/Bz receptors of composition α1β2γ2 (α1), α2β2γ2 (α2), α3β2γ2 (α3), α4β2γ2 (α4), α5β2γ2 (α5) and α6β2γ2 (α6). It is well known that the β2 and β3 subunits can be interchanged with no effect on Bz ligand affinity or efficacy. […] These studies are similar to those performed in the laboratory of Bryan Roth who has already expressed the receptors employing the work of Kucken et. al. and Gray et. al.
In brief, for membrane preparations, the cells were scraped on to the ice and diluted into 5 mL of phosphate buffered saline (pH=7.40) and cells pelleted by centrifugation for 5 min. at 4° C. The pellet was resuspended in 1 mL of 50 mM Tris-acetate buffer (pH 7.4) and centrifuged at 18,000 g for 20 min. […] Each pellet were diluted to 6 mL and then 100 μL of membranes were incubated with approximately 1 nM final concentration of [^3H]Ro 15-1788 in a total volume of 250 μL together with serial dilutions of test compound for 90 min. on ice. The membranes were harvested in polyethyleneimine-pretreated Whatman GF/C filters and after drying and addition of scintillation cocktail, counted in a scintillation counter. […]
On the technique in general: Displacement assays read how much labelled ligand stays bound in the presence of the test substance.

Series [2] has as its system full panel of receptors (5ht1a ... σ1, σ2). The experiment in a line: Full panel receptor binding (secondary binding). The text has this: FIGS. 28 A and B provide a full panel Receptor data for certain compounds of the invention. Data on the full panel (secondary binding) are Ki values. The Ki values are reported in nanomolar concentrations, In the Full panel data various receptors were used, including 5ht1a, 5ht1b, 5ht1d, 5ht1e, 5ht2a, 5ht2b, 5ht2c, 5ht3, 5ht5a, 5ht6, 5ht7, α1A, α1B, α2A, α2B, α2C, β1, β2, CB1, CB2, D1, D2, D3, D4, D5, DAT, DOR, H1, H2, H3, H4, imidazoline 1, KOR, M1, M2, M3, M4, M5, MDR1, MOR, NET, NMDA, SERT, σ1, and σ2. 5-HT receptors, 5ht1a, 5ht1b, 5ht1d, 5ht1e, 5ht2a, 5ht2b, 5ht2c, 5ht3, 5ht5a, 5ht6, 5ht7, are receptors for the neurotransmitter and peripheral signal mediator serotonin, also known as 5-hydroxytryptamine or 5-HT. α1A, α1B, α2A, α2B, α2C, β1, β2; CB1, CB2 are adrenoceptors; cannabinoid receptors, D1, D2, D3, D4, D5 are dopamine receptors; DAT is dopamine transporter receptor; DOR is δ-Opioid receptor; H1, H2, H3, H4 are histamine receptors; KOR is κ-Opioid receptor; M1, M2, M3, M4, M5 are muscarinic acetylcholine receptors; MDR represents multidrug resistance in the course of exposure to various compounds that are used in modern anticancer therapy, including cytotoxic drugs and differentiating agents. […]

α2β3γ2 GABAA receptor, sequence (P23576 29-451): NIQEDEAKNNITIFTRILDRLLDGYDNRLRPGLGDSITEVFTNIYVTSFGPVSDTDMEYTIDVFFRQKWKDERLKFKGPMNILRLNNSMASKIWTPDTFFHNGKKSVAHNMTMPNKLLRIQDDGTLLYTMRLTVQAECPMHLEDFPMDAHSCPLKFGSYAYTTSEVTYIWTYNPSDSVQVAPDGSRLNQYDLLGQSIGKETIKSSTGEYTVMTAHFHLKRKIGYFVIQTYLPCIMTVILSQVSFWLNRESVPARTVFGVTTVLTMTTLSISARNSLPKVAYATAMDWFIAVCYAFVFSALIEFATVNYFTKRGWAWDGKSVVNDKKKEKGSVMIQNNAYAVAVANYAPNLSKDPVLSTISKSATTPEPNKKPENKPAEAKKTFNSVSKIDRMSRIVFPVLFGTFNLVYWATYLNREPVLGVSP
α2β3γ2 GABAA receptor, sequence (P63079 26-473 partner): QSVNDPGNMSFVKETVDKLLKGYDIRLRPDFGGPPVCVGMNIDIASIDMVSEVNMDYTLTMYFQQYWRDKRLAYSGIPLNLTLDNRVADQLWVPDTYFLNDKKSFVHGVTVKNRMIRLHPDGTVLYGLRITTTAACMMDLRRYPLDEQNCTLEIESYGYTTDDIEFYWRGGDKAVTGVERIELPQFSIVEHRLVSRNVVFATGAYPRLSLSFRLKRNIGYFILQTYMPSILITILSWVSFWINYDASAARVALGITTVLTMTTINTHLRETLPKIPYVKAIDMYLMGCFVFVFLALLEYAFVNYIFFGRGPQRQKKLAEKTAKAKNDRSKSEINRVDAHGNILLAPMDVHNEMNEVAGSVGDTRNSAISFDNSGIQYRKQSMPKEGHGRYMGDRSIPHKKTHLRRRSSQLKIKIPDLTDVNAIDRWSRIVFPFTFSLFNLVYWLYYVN
α2β3γ2 GABAA receptor, sequence (P18508 39-466): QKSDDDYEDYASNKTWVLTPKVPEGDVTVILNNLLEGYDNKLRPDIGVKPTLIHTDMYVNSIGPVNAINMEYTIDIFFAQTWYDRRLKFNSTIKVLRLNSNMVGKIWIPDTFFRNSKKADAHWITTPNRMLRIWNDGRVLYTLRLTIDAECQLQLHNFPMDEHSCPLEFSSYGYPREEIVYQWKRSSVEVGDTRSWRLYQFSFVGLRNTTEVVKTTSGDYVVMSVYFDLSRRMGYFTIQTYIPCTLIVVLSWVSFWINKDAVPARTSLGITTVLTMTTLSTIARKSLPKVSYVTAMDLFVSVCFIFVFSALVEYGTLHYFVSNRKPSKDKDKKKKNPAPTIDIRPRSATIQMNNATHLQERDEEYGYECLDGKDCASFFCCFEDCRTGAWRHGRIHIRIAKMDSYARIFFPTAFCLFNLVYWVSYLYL

By melting point is commonly meant the temperature of the solid-liquid transition. With `CCOC(=O)c1ncn2c1CN=C(c1ccccc1)c1cc(-c3ccccc3)ccc1-2` [DM-I-81, Ethyl 8-phenyl-6-phenyl-4H-benzo[f]imidazo[1,5-a][1,4]diazepine-3-carboxylate], the melting point was 200 to 201 °C.

With `COCc1ncn2c1CN(C)C(=O)c1cc(Cl)ccc1-2` [PWZ-029, methyl(8-chloro-5,6-dihydro-5-methyl-6-oxo-4H-imidazo[1,5-α][1,4]benzodiazepin-3-yl)methyl ether], on α2β3γ2 GABAA receptor, the “efficacy / modulation of GABA elicited currents at α2 (in words)” value is on record as “very, very weak agonist activity”.

With `CCc1ccc2c(c1)C(=O)N(C)Cc1c(C(=O)OCCCOC(=O)c3ncn4c3CN(C)C(=O)c3cc(CC)ccc3-4)ncn1-2` [XLi356, 1,3-Bis(8-ethyl-5,6-dihydro-5-methyl-6-oxo-4H-imidazo[1,5a][1,4]benzodiazepine-3-carboxy)propyl diester], the “Ki α1 (in words)” value in series [1] is listed as “no affinity”. Moreover, the “binding to other receptors in full panel (in words)” value in series [2] is “do not bind to other receptors at levels of concern”.
